This passage reports TGI and GI50 results from PubChem BioAssay (NCI).

Among the test systems are K-562 leukemia; HL-60(TB) leukemia; 786-0 renal; COLO 205 colon; UACC-257 melanoma; MALME-3M melanoma; OVCAR-5 ovarian; MDA-MB-231 breast; T-47D breast; A549 NSCLC; HCC-2998 colon.
Common to all, as to assay: inhibition of tumour cell growth, NCI panel, 48 h

“And” between values parts separate entries of the source, which are not always exact repeats. Identical values can stand only once.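 Cells were grown in 96-well plates and exposed to each compound for 48 hours at five concentrations; endpoints were interpolated linearly between bracketing concentrations, or set to the highest concentration if not reached. At the GI50, growth is halved. At the TGI there is no net growth.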

Consider `Clc1ccc2c(c1)CC1C[N+]3=C(CCCC3)C1=C2` (stereo unspecified), for which the TGI in the experiment on K-562 leukemia, with HL-60(TB) leukemia, in the experiment on 786-0 renal, with COLO 205 colon, in the experiment with UACC-257 melanoma and in the experiment on MALME-3M melanoma was more than 100 µM in each case. The TGI with OVCAR-5 ovarian, in the experiment on MDA-MB-231 breast, in the experiment with T-47D breast and in the experiment with A549 NSCLC was more than 100 µM throughout.
In the case of `CC(=O)O[C@H]1[C@H](OC(C)=O)[C@@H](CN=[N+]=[N-])OCO[C@@H]1CN=[N+]=[N-]`, the TGI in the experiment with K-562 leukemia, in the experiment with HL-60(TB) leukemia, in the experiment with 786-0 renal, with COLO 205 colon, in the experiment with UACC-257 melanoma and in the experiment on MALME-3M melanoma was more than 100 µM in each case. Also, the TGI in the experiment with OVCAR-5 ovarian, in the experiment with MDA-MB-231 breast, in the experiment on T-47D breast, in the experiment with HCC-2998 colon and in the experiment on A549 NSCLC was more than 100 µM throughout.
As to `Cc1cc(C)nc(NS(=O)(=O)c2ccc(NNC(=O)c3cccc4c(NNc5ccc(S(=O)(=O)Nc6nc(C)cc(C)n6)cc5)c5ccccc5nc34)cc2)n1`, the TGI with K-562 leukemia amounted to 52.4 µM; in the experiment with HL-60(TB) leukemia, 47 µM; in the experiment on 786-0 renal, 54.1 µM; in the experiment with COLO 205 colon, 46.3 µM; with UACC-257 melanoma, 71.3 µM; in the experiment on MALME-3M melanoma, 51.8 µM. Besides, the TGI in the experiment on OVCAR-5 ovarian amounted to 40.3 µM; in the experiment with MDA-MB-231 breast, 44.9 µM; with T-47D breast, 78.9 µM; in the experiment on HCC-2998 colon it was 37.7 µM; in the experiment with A549 NSCLC, 96.8 µM.
Regarding `CC1(C)O[C@H]2[C@@H]3N=C(c4ccccc4)O[C@@H]3C=C[C@H]2O1`, the TGI in the experiment with K-562 leukemia, in the experiment with HL-60(TB) leukemia, in the experiment on 786-0 renal, with COLO 205 colon, in the experiment with UACC-257 melanoma and with OVCAR-5 ovarian was more than 100 µM throughout. Besides, the TGI in the experiment with MDA-MB-231 breast, in the experiment with T-47D breast, with HCC-2998 colon and in the experiment with A549 NSCLC was more than 100 µM throughout.
Regarding `COc1ccc(N2CCN(Cc3c(C(C)=O)[n+](=O)c4ccccc4n3[O-])CC2)cc1`, the TGI was more than 100 µM in the experiment with K-562 leukemia; more than 100 µM with HL-60(TB) leukemia; more than 100 µM with 786-0 renal; more than 100 µM in the experiment with COLO 205 colon; more than 100 µM in the experiment with UACC-257 melanoma; 60.6 µM in the experiment with MALME-3M melanoma. The TGI in the experiment with OVCAR-5 ovarian, in the experiment with MDA-MB-231 breast, in the experiment on T-47D breast, in the experiment with HCC-2998 colon and in the experiment with A549 NSCLC was more than 100 µM throughout.
As to `CCCN1CN(c2ccccc2)C2(CCN(CCCC(=O)c3ccc(F)cc3)CC2)C1=O`, the TGI in the experiment on K-562 leukemia was more than 58.4 µM; with HL-60(TB) leukemia, 40.2 µM; in the experiment with 786-0 renal it was 17.3 µM; in the experiment with COLO 205 colon, 0.348 µM; with UACC-257 melanoma, 6.09 µM; in the experiment with MALME-3M melanoma, 30.1 µM. Also, the TGI was determined as 20.2 µM in the experiment with OVCAR-5 ovarian; 18.1 µM in the experiment with MDA-MB-231 breast; 35 µM in the experiment on T-47D breast; 20.8 µM with HCC-2998 colon; 29.8 µM in the experiment with A549 NSCLC.
As to `COc1cc(/C=C/c2sc3ccccc3[n+]2C)ccc1N(C)C`, the GI50 was 1.86 µM in the experiment with K-562 leukemia; 1.75 µM in the experiment on HL-60(TB) leukemia; 8.32 µM with UACC-257 melanoma; 5.85 µM in the experiment with MALME-3M melanoma; 11.2 µM in the experiment on MDA-MB-231 breast; 1.36 µM in the experiment with T-47D breast. In addition, in the experiment on A549 NSCLC, the GI50 is 7.08 µM. Also, the TGI is 6.16 µM in the experiment with K-562 leukemia; 3.88 µM in the experiment with HL-60(TB) leukemia; 24.8 µM in the experiment with 786-0 renal; 2.76 µM and 2.86 µM with COLO 205 colon; 22.9 µM in the experiment with UACC-257 melanoma; 19.8 µM in the experiment with MALME-3M melanoma. The TGI with OVCAR-5 ovarian is 40.5 µM; with MDA-MB-231 breast it was 23.2 µM; in the experiment with T-47D breast, 10.8 µM; with HCC-2998 colon, 53.4 µM; with A549 NSCLC, more than 100 µM.
On to `CC(=O)O[C@H]1CC[C@H]2[C@@H]3CCC4=C(C(=O)C=CC4(C)OC(C)=O)[C@H]3CC[C@]12C` (stereo partly specified), for which the TGI in the experiment on K-562 leukemia is more than 100 µM; in the experiment with HL-60(TB) leukemia, 97.1 µM; with 786-0 renal, more than 100 µM; in the experiment with UACC-257 melanoma, more than 100 µM; with MALME-3M melanoma, more than 100 µM; in the experiment with OVCAR-5 ovarian, more than 100 µM. Also, the TGI in the experiment with MDA-MB-231 breast, in the experiment on T-47D breast, with HCC-2998 colon and in the experiment with A549 NSCLC was more than 100 µM each time.
Regarding `Cn1c(=O)c2nc3nnc(C#N)c(N)n3c2n(C)c1=O`, the TGI with K-562 leukemia is more than 100 µM; with HL-60(TB) leukemia, more than 100 µM; with 786-0 renal it was more than 100 µM; in the experiment on COLO 205 colon, more than 100 µM; in the experiment with MALME-3M melanoma, 81.2 µM; in the experiment with OVCAR-5 ovarian it was more than 100 µM. In addition, the TGI in the experiment on MDA-MB-231 breast, in the experiment on T-47D breast, in the experiment with HCC-2998 colon and in the experiment with A549 NSCLC was more than 100 µM each time.
Consider `CC(=O)N1CC[N+](C)(CCCCN2c3ccccc3Sc3cc(N=[N+]=[N-])ccc32)CC1`, for which the TGI with K-562 leukemia, with HL-60(TB) leukemia, in the experiment on 786-0 renal, in the experiment with COLO 205 colon, with UACC-257 melanoma and with MALME-3M melanoma was more than 100 µM each time. The TGI in the experiment with OVCAR-5 ovarian, in the experiment on MDA-MB-231 breast, in the experiment on T-47D breast, with HCC-2998 colon and in the experiment with A549 NSCLC was more than 100 µM in each case.
As to `CC(C)c1ccc2c(c1)C=C1OC(=O)[C@]3(C)CCC[C@@]2(C)C13` (stereo partly specified), the TGI in the experiment with K-562 leukemia, in the experiment with HL-60(TB) leukemia, in the experiment with 786-0 renal, in the experiment with COLO 205 colon, in the experiment with UACC-257 melanoma and in the experiment on MDA-MB-231 breast was more than 100 µM throughout. Further, the TGI in the experiment with T-47D breast, in the experiment on HCC-2998 colon and in the experiment on A549 NSCLC was more than 100 µM in each case.
Turning to `O=C(N/N=C/C=C/c1ccc([N+](=O)[O-])o1)c1ccc(Br)s1`, the TGI is more than 100 µM with K-562 leukemia; 87.2 µM in the experiment on HL-60(TB) leukemia; 47.5 µM with 786-0 renal; 33.3 µM with COLO 205 colon; 37.9 µM in the experiment on MALME-3M melanoma; 59.7 µM in the experiment on OVCAR-5 ovarian. In addition, the TGI in the experiment on MDA-MB-231 breast is 64.9 µM; in the experiment on T-47D breast, 65.5 µM; in the experiment on A549 NSCLC it was more than 100 µM.
